The results in this text go back to patent US10945972B2, “Particulate materials” (Nektar Therapeutics, priority 2002, dated 2021).

What all share (format): physicochemical
A short description of series [1]: Isothermal microcalorimetry, TAM with RH ramp (Example 8). Conditions: 25° C., RH ramp 0 to 90% at 3% RH/hr; listed as TBS2. The protocol:
A Thermal Activity Monitor (TAM, model 2277; Thermometric A B, Jrflla, Sweden) was used to measure the calorimetric heat flow (μW) vs. % RH profile of each sample. A RH-perfusion cell (Model 2255-120) accessory for the TAM was used to control RH within the sample vessel. The carrier gas, dry N2, was flowed at a constant rate (1.48 cm^3/min). All experiments were performed at 25° C. About 100 to 105 mg accurately weighed of each powder were placed in a stainless steel ampoule, attached to the RH perfusion cell, and then dried under 0% RH until a stable heat flow signal was reached (e.g., a signal within the range of −1 to +1 μW). The RH was then increased in a linear ramp from 0 to 90% over the following 30 hours (i.e., 3% RH/hr). The heat flow arising from interactions of water vapor with the solid sample was measured as a function of time. Since RH changed with time in a linear fashion, the heat flow was also known as a function of RH.
The TAM measures the total heat flow in power, P, produced from either a physical or chemical reaction. In this study, the calorimetric power is proportional to the rate of moisture sorption or desorption, crystallization, and/or other processes. Exothermic events are measured as a deflection in the positive y-axis direction. Although crystallization is an exothermic process, it can be observed as a net endothermic process. During crystallization, there is an exotherm due to crystallization and a simultaneous endotherm due to desorption of previously sorbed moisture. The TAM profile gives the resultant of these processes.

A short description of series [2]: Inverse gas chromatography surface energy (Example 1). The following applies: 303K. An excerpt:
For TBS and FHBr powders, IGC was done using a Hewlett Packard Series 6890 instrument which was specifically modified for IGC measurements by Surface Measurement Systems Ltd (Manchester, UK). The IGC method is described in detail by Tong et al. 2001. (Tong H. H. Y., B. Y. Shekunov, P. York, A. H. L. Chow, 2001. Pharm. Res. 18, 852.) Triplicate measurements in separate packed columns were made. […] The γS^D and ΔGA values were obtained at 303K.

Series [3] is described as follows: Particle size by AeroSizer time-of-flight (Example 1). Conditions: aerodynamic-equivalent volume mean diameter.
The nature of series [4]: Particle size by Helos/Rodos laser diffraction (Example 1). Conditions: geometric projection-equivalent volume mean diameter.
A short description of series [5]: Differential scanning calorimetry (Example 8). The following applies: DSC, 10° C. min^−1. The protocol:
Prior to sample analysis, a baseline was obtained which was used as a background. […] Temperature and enthalpy were calibrated with the standard materials indium (melting point=156.6° C.) and zinc (melting point=419.5° C.). Samples (1-10) were accurately weighed into pierced, crimped aluminium pans and heated at 10° C. min^−1 over a heating range of 25-290° C. under a nitrogen purge. A chiller unit was used in conjunction with the calorimeter to attain the lower temperatures.
Background: DSC measures the heat that a sample takes up or gives off during a temperature scan.

Consider `CC(C)(C)NCC(O)c1cc(O)cc(O)c1` (centres unmarked) [TSB SEDS, terbutaline sulphate], for which the “RH of thermal event in TAM profile” value in series [1] was “about 85 % RH”. Further, the “γs^D (mJ/m^2)” value in series [2] is listed as 55.05 mJ/m^2. Also, in series [2] (probe acetone), the “ΔGA (kJ/mol) Acetone” value worked out at 10.42 kJ/mol. Further, the “ΔGA (kJ/mol) Chloroform” value in series [2] (probe chloroform) amounted to 1.21 kJ/mol. Also, the “ΔGA (kJ/mol) Dioxane” value in series [2] (probe dioxane) is 14.20 kJ/mol. In series [2] (probe ethyl acetate), the “ΔGA (kJ/mol) Ethyl acetate” value was 13.76 kJ/mol. In addition, the “ΔGA (kJ/mol) Toluene” value in series [2] (probe toluene) amounted to 2.85 kJ/mol. Besides, the “VMD (μm) (Time of flight)” value in series [3] came out at 3.4 μm. In series [4], the “VMD (μm) (laser diffraction)” value came to 3.43 μm. Besides, the “Enthalpy of Fusion” value in series [5] (listed as TBS 2) and in series [5] (listed as TBS2) was 88.68 J/g throughout.
